# Reference: ChEMBL document CHEMBL5226286, “The application of isatin-based multicomponent-reactions in the quest for new bioactive and druglike molecules” (Eur J Med Chem, 2021)
# Active and inactive are the calls of the source. The rule behind the calls is not given here.
# Assays:
# [1] = test system: A549; experiment: Antiproliferative activity against human A549 cells by MTT reduction assay; format: functional, cell-based
# [2] = test system: SK-N-SH; experiment: Antiproliferative activity against human SK-N-SH cells by MTT reduction assay; format: functional, cell-based
# [3] = test system: HeLa; experiment: Cytotoxicity against human HeLa cells incubated for 24 hrs by MTT reduction assay; format: functional, cell-based
# [4] = test system: HepG2; experiment: Antiproliferative activity against human HepG2 cells by MTT reduction assay; format: functional, cell-based
# [5] = test system: MCF7; experiment: Antiproliferative activity against human MCF7 cells by MTT reduction assay; format: functional, cell-based
# [6] = test system: Staphylococcus aureus; experiment: Antibacterial activity against Staphylococcus aureus ATCC 29213; format: functional
# [7] = test system: Staphylococcus aureus; experiment: Antibacterial activity against methicillin resistant Staphylococcus aureus ATCC 43300; format: functional
# [8] = test system: Escherichia coli; experiment: Antibacterial activity against Escherichia coli ATCC 25922; format: functional
# [9] = test system: Klebsiella pneumoniae; experiment: Antibacterial activity against Klebsiella pneumoniae ATCC 700603; format: functional
# [10] = test system: Pseudomonas aeruginosa; experiment: Antibacterial activity against Pseudomonas aeruginosa ATCC 27853; format: functional
# [11] = test system: Pseudomonas aeruginosa; experiment: Antibacterial activity against Pseudomonas aeruginosa No.010; format: functional
# [12] = test system: Pseudomonas aeruginosa; experiment: Antibacterial activity against multidrug resistant Pseudomonas aeruginosa 025; format: functional
# [13] = test system: Pseudomonas aeruginosa; experiment: Antibacterial activity against multidrug resistant Pseudomonas aeruginosa 034; format: functional
# [14] = test system: MCF7; experiment: cells; format: functional, cell-based; conditions: Homo sapiens
# [15] = test system: HepG2; experiment: cells; format: functional, cell-based; conditions: Homo sapiens
# [16] = test system: HCT-116; experiment: Cytotoxicity against human HCT-116 cells; format: functional, cell-based
# [17] = test system: MDA-MB-435; experiment: Antiproliferative activity against human MDA-MB-435 cells; format: functional, cell-based
# [18] = test system: HeLa; experiment: Growth inhibition of human HeLa cells at 20 micromol relative to control; format: functional; conditions: dose 20 µmol
# [19] = test system: HepG2; experiment: Growth inhibition of human HepG2 cells at 20 micromol relative to control; format: functional; conditions: dose 20 µmol
# [20] = test system: MDA-MB-231; experiment: Growth inhibition of human MDA-MB-231 cells at 20 micromol relative to control; format: functional; conditions: dose 20 µmol
# [21] = test system: DU-145; experiment: Cytotoxicity against human DU-145 cells incubated for 48 hrs by MTT assay; format: functional, cell-based; conditions: DU-145, 48 h
# [22] = cells; format: functional, cell-based; conditions: Homo sapiens, HCCC9810
# [23] = test system: Huh-7; experiment: cells; format: functional, cell-based; conditions: Homo sapiens
# [24] = test system: MCF7; experiment: Antiproliferative activity against human MCF7; format: functional, cell-based
# [25] = test system: WI-38; experiment: Antiproliferative activity against human WI-38; format: functional, cell-based
# [26] = test system: Escherichia coli; experiment: Antimicrobial activity against Escherichia coli ATCC 25922; format: functional
# [27] = test system: Streptococcus pneumoniae; experiment: Antibacterial activity against Streptococcus pneumoniae incubated for 24 to 48 hrs by agar diffusion well method; format: functional; conditions: time 24-48 hrs
# [28] = test system: Bacillus subtilis; experiment: Antibacterial activity against Bacillus subtilis incubated for 24 to 48 hrs by agar diffusion well method; format: functional; conditions: time 24-48 hrs
# [29] = test system: Pseudomonas aeruginosa; experiment: Antibacterial activity against Pseudomonas aeruginosa incubated for 24 to 48 hrs by agar diffusion well method; format: functional; conditions: time 24-48 hrs
# [30] = test system: Escherichia coli; experiment: Antibacterial activity against Escherichia coli incubated for 24 to 48 hrs by agar diffusion well method; format: functional; conditions: time 24-48 hrs
# [31] = test system: Streptococcus pneumoniae; experiment: Antibacterial activity against Streptococcus pneumoniae RCMB 010010 incubated for 24 hrs by agar well diffusion method; format: functional
# [32] = test system: Bacillus subtilis; experiment: Antibacterial activity against Bacillus subtilis RCMB 010067 incubated for 24 hrs by agar well diffusion method; format: functional
# [33] = test system: Pseudomonas aeruginosa; experiment: Antibacterial activity against Pseudomonas aeruginosa ATCC 85327; format: functional
# [34] = test system: Bacillus subtilis; experiment: Antibacterial activity against Bacillus subtilis; format: functional
# [35] = molecular target: T1, NAD-dependent protein deacetylase sirtuin-2 (Homo sapiens, UniProt Q8IXJ6); experiment: Inhibition of sirtuin 2 (unknown origin)
# T1 sequence (Q8IXJ6 whole entry): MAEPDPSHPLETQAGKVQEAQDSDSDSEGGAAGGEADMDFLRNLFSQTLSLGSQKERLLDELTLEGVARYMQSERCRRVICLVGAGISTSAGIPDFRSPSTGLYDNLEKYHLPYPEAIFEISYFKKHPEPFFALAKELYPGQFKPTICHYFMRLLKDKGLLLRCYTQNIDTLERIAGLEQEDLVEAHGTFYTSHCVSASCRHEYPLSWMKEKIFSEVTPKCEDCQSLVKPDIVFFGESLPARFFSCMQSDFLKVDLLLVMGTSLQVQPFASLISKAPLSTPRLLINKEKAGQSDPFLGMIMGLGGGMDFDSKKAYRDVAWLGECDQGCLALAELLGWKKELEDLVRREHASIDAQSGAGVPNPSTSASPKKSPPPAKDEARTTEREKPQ
# [36] = test system: Escherichia coli; experiment: Antibacterial activity against Escherichia coli assessed as zone of inhibition; format: functional
# [37] = test system: Escherichia coli; experiment: Antibacterial activity against Escherichia coli NCIM 2688 measured after 8 hrs; format: functional
# [38] = test system: Pseudomonas aeruginosa; experiment: Antibacterial activity against Pseudomonas aeruginosa NCIM […] measured after 8 hrs; format: functional
# [39] = test system: Bacillus subtilis; experiment: Antibacterial activity against Bacillus subtilis NCIM 2079 measured after 12 hrs; format: functional
# [40] = test system: Staphylococcus aureus; experiment: Antibacterial activity against Staphylococcus aureus NCIM 2010 measured after 12 hrs; format: functional
# [41] = test system: Pseudomonas aeruginosa; experiment: Antibacterial activity against Pseudomonas aeruginosa RCMB 010043 incubated for 24 hrs by agar well diffusion method; format: functional
# [42] = test system: Escherichia coli; experiment: Antibacterial activity against Escherichia coli RCMB 01100052 incubated for 24 hrs by agar well diffusion method; format: functional
# [43] = test system: Staphylococcus aureus; experiment: Antibacterial activity against Staphylococcus aureus assessed as zone of inhibition; format: functional
# [44] = test system: Staphylococcus aureus; experiment: Antibacterial activity against Staphylococcus aureus by disc diffusion method; format: functional
# [45] = test system: Bacillus subtilis; experiment: Antibacterial activity against Bacillus subtilis by disc diffusion method; format: functional
# [46] = test system: Escherichia coli; experiment: Antibacterial activity against Escherichia coli by disc diffusion method; format: functional
# [47] = test system: Pseudomonas aeruginosa; experiment: Antibacterial activity against Pseudomonas aeruginosa by disc diffusion method; format: functional
# [48] = test system: PC-3; experiment: Antiproliferative activity against human PC-3 cells; format: functional, cell-based
# [49] = test system: K562; experiment: Antiproliferative activity against human K562 cells; format: functional, cell-based
# [50] = test system: A549; experiment: Antiproliferative activity against human A549 cells; format: functional, cell-based
# [51] = test system: CCRF-CEM; experiment: Antiproliferative activity against human CCRF-CEM cells; format: functional, cell-based
# [52] = test system: SK-OV-3; experiment: Antiproliferative activity against human SK-OV-3 cells; format: functional, cell-based
# [53] = Antiproliferative activity against human U87 cells; format: functional, cell-based, U-87MG ATCC; conditions: U-87 MG
# [54] = test system: Bacillus subtilis; experiment: Antibacterial activity against Bacillus subtilis ATCC 465; format: functional
# [55] = test system: Bacillus pumilus; experiment: Antibacterial activity against Bacillus pumilus PTCC 1114; format: functional
# [56] = test system: Micrococcus luteus; experiment: Antibacterial activity against Micrococcus luteus PTCC 1110; format: functional
# [57] = test system: Streptococcus mutans; experiment: Antibacterial activity against Streptococcus mutans PTCC 1601; format: functional
# [58] = test system: Staphylococcus epidermidis; experiment: Antibacterial activity against Staphylococcus epidermidis ATCC 12228; format: functional
# [59] = test system: Staphylococcus aureus; experiment: Antibacterial activity against Staphylococcus aureus ATCC 25923; format: functional
# [60] = test system: Enterococcus faecalis; experiment: Antibacterial activity against Enterococcus faecalis ATCC 29737; format: functional
# [61] = test system: Bacillus subtilis; experiment: Antibacterial activity against Bacillus subtilis MTCC 441; format: functional
# [62] = test system: Staphylococcus aureus; experiment: Antibacterial activity against Staphylococcus aureus MTCC 96; format: functional
# [63] = test system: Escherichia coli; experiment: Antibacterial activity against Escherichia coli MTCC 1689; format: functional
# [64] = test system: Proteus mirabilis; experiment: Antibacterial activity against Proteus mirabilis; format: functional
# [65] = test system: Klebsiella pneumoniae; experiment: Antibacterial activity against Klebsiella pneumoniae ATCC 29655; format: functional
molecule,measurement,setting,value
Cc1cc2c(cc1C)C(Cl)=C(C1C3CCCN3C3(C(=O)Nc4ccc(I)cc43)C1C(=O)c1ccccc1)CCC2 (stereo not drawn),IC50,[1],15.9 µM
same,IC50,[2],5 µM
same,IC50,[3],3.8 µM
same,IC50,[4],8.7 µM
same,IC50,[5],8.3 µM
COc1ccc(C2C3CCCN3C3(C(=O)Nc4ccccc43)C2C(=O)c2ccco2)cc1 (stereo not drawn),MIC,[6],64 µg/mL
same,MIC,[7],128 µg/mL
same,MIC,[8],128 µg/mL
same,MIC,[9],128 µg/mL
same,MIC,[10],15 µg/mL
same,MIC,[11],16 µg/mL
same,MIC,[12],16 µg/mL
same,MIC,[13],32 µg/mL
CCOC(=O)C1=C(C)NC(=S)NC12C(=O)Nc1c(Cl)cc(Cl)cc12 (stereo not drawn),IC50,[14],21.3 µM
same,IC50,[15],28.4 µM
COc1cccc2c1C(=O)c1c(O)c3c(c(O)c1C2=O)C[C@@](O)(C(=O)CO)C[C@@H]3O[C@H]1C[C@H](N)[C@H](O)[C@H](C)O1 [DOXORUBICIN],IC50,[2],6.3 µM
same,IC50,[4],5.4 µM
same,IC50,[16],2.4 µM
same,IC50,[17],0.09 µM
same,growth inhibition (GI),[18],76.1%
same,growth inhibition (GI),[19],79.1%
same,growth inhibition (GI),[20],76%
same,IC50,[21],1.8 µM
Cc1cc2c(cc1C)C(Cl)=C(C1C3CCCN3C3(C(=O)Nc4ccc([N+](=O)[O-])cc43)C1C(=O)c1ccccc1)CCC2 (stereo not drawn),IC50,[1],5.6 µM
same,IC50,[2],11 µM
same,IC50,[3],3.8 µM
same,IC50,[4],20 µM
same,IC50,[5],7.3 µM
O=C1OC(c2ccccc2)=N[C@@]12[C@H](c1ccc(C(F)(F)F)cc1)[C@H]1CCCN1[C@]21C(=O)Nc2ccccc21,IC50,[22],7.2 µM
same,IC50,[23],7.9 µM
CN1C(=O)C2(SC[C@@H](C(=O)O)[C@@H]2C(=O)c2ccc(Cl)c(Cl)c2)c2ccccc21 (stereo partly drawn),IC50,[24],36.3 µM
same,IC50,[25],55.1 µM
CNC(=O)c1cc(Oc2ccc(NC(=O)Nc3ccc(Cl)c(C(F)(F)F)c3)cc2)ccn1 [SORAFENIB],IC50,[22],> 10 µM
same,IC50,[23],7.1 µM
GENTAMICIN,MIC,[26],4 µg/mL
same,MIC,[27],inactive
same,MIC,[28],inactive
same,MIC,[29],15.6 µg/mL
same,MIC,[30],1.95 µg/mL
same,MIC,[31],inactive
same,MIC,[32],inactive
same,MIC,[33],8 µg/mL
same,MIC,[34],0.125 µg/mL
CCOC(=O)C1=C(N)Oc2cc(C)oc(=O)c2C12C(=O)Nc1ccc(Br)cc12 (stereo not drawn),IC50,[35],124 µM
CC1(C)S[C@@H]2[C@H](NC(=O)[C@H](N)c3ccccc3)C(=O)N2[C@H]1C(=O)O [AMPICILLIN],diameter of the inhibition zone (DIZ),[36],6 mm
same,MIC90,[37],1.46 µg/mL
same,MIC90,[38],4.36 µg/mL
same,MIC90,[39],10.3 µg/mL
same,MIC90,[40],1 µg/mL
same,MIC,[27],0.015 µg/mL
same,MIC,[28],0.007 µg/mL
same,MIC,[29],inactive
same,MIC,[30],inactive
same,MIC,[41],inactive
same,MIC,[42],inactive
same,diameter of the inhibition zone (DIZ),[43],6 mm
same,MIC,[44],250 µg/mL
same,MIC,[45],250 µg/mL
same,MIC,[46],100 µg/mL
same,MIC,[47],100 µg/mL
Cc1noc([C@@H]2[C@H]3CCCN3[C@]3(C(=O)N(C)c4ccc(F)cc43)[C@@]23C(=O)N(C)c2ccccc23)c1[N+](=O)[O-],IC50,[48],51.6 µM
same,IC50,[49],25 µM
same,IC50,[50],39.7 µM
Cc1ccccc1/C=C1\CNC[C@@]2(C1=O)[C@@H](c1ccccc1C)C1CCCN1[C@]21C(=O)Nc2ccccc21 (stereo partly drawn),IC50,[51],3.6 µM
same,IC50,[52],35.8 µM
CC1(C)CC(=O)C2=C(C1)OC(N)=C(C#N)C21C(=O)N(CCCCCCCCCCBr)c2ccccc21 (stereo not drawn),IC50,[53],2.5 µM
CN(C)[C@@H]1C(O)=C(C(N)=O)C(=O)[C@@]2(O)C(O)=C3C(=O)c4c(O)cccc4[C@@](C)(O)[C@H]3C[C@@H]12 [TETRACYCLINE],MIC,[54],4 µg/mL
same,MIC,[55],8 µg/mL
same,MIC,[56],4 µg/mL
same,MIC,[57],2 µg/mL
same,MIC,[58],< 2 µg/mL
same,MIC,[59],4 µg/mL
same,MIC,[60],8 µg/mL
same,MIC,[61],10 µg/mL
same,MIC,[62],5 µg/mL
same,MIC,[63],10 µg/mL
same,MIC,[64],15 µg/mL
same,MIC,[65],16 µg/mL
